Read-outs that look alike come from different tables or passages of the source.
Molecular target: SARS-CoV-2 Papain-Like Protease (PLpro) (Severe acute respiratory syndrome coronavirus 2 (2019-nCoV) (SARS-CoV-2), UniProt P0DTD1)
Experiment: biochemical
Settings: read-out: PLpro IC50
[1] = SARS-CoV-2 PLpro enzymatic fluorescence assay
[2] = PLpro enzymatic fluorescence assay, class symbols
[3] = PLpro 6.25 nM, substrate 25 μM, 60 min at 25° C., for more potent compounds PLpro 1 nM, 120 min

Structure (SMILES)	IC50 [1] [µM]	further results
Cc1ccc(N)cc1CN[C@H](C)c1cccc2ccccc12 [Compound 106, (R)-4-Methyl-3-(((1-(naphthalen-1-yl)ethyl)amino)methyl) aniline]	> 5	
Cc1ccc(Nc2nccs2)cc1C(=O)N[C@H](C)c1cccc2ccccc12 [Compound 107, (R)-2-Methyl-N-(1-(naphthalen-1-yl)ethyl)-5-(thiazol-2-ylamino)benzamide]	> 5	
COCC(NC(=O)c1cc([N+](=O)[O-])ccc1C)c1cccc2ccccc12 (stereo not drawn) [Compound 108, N-(2-Methoxy-1-(naphthalen-1-yl)ethyl)-2-methyl-5-nitrobenzamide]	> 5	
Cc1ccc(N)cc1C(=O)NC(c1cccc2ccccc12)C1CCOCC1 (stereo not drawn) [Compound 109, 5-Amino-2-methyl-N-(naphthalen-1-yl(tetrahydro-2H-pyran-4-yl)methyl)benzamide]	> 5	
Cc1ccc([N+](=O)[O-])cc1CNC(c1cccc2ccccc12)C1COC1 (stereo not drawn) [Compound 110]		IC50 [2]: > 5 µM
Cc1ccc(NC2CNC2)cc1C(=O)N1Cc2ccc(-c3ccc(CN4CCCC4)s3)cc2C1 [Compound 111, (5-(Azetidin-3-ylamino)-2-methylphenyl)(5-(5-(pyrrolidin-1-ylmethyl)thiophen-2-yl)isoindolin-2-yl)methanone]	> 5	
COCCC(NCc1cc([N+](=O)[O-])ccc1C)c1cccc2ccccc12 (stereo not drawn) [Compound 113]		IC50 [2]: > 5 µM
COc1ncccc1Nc1ccc(C)c(C(=O)N[C@H](C)c2cccc3ccccc23)c1 [Compound 115, (R)-5-((2-Methoxypyridin-3-yl)amino)-2-methyl-N-(1-(naphthalen-1-yl)ethyl)benzamide]	1 to 5	
Cc1ccc(NC2CNC2)cc1C(=O)NCc1ccc(-c2ccc(CN3CCCC3)s2)cc1 [Compound 116, 5-(Azetidin-3-ylamino)-2-methyl-N-(4-(5-(pyrrolidin-1-ylmethyl)thiophen-2-yl)benzyl)benzamide]	> 5	
COCC(NC(=O)c1cc(N)ccc1C)c1cccc2ccccc12 (stereo not drawn) [Compound 118, 5-Amino-N-(2-methoxy-1-(naphthalen-1-yl)ethyl)-2-methylbenzamide]	> 5	
Cc1ccc(Nc2ccc[nH]c2=O)cc1C(=O)N[C@H](C)c1cccc2ccccc12 [Compound 119, (R)-2-Methyl-N-(1-(naphthalen-1-yl)ethyl)-5-((2-oxo-1,2-dihydropyridin-3-yl)amino)benzamide]	1 to 5	
Cc1ccc(NC2CNC2)cc1C(=O)NCc1cccc(-c2ccc(CN3CCCC3)s2)c1 [Compound 120, 5-(Azetidin-3-ylamino)-2-methyl-N-(3-(5-(pyrrolidin-1-ylmethyl)thiophen-2-yl)benzyl)benzamide]	> 5	
Cc1ccc(Nc2cn[nH]c2)cc1C(=O)N[C@H](C)c1cccc2ccccc12 [Compound 121, (R)-5-((1H-Pyrazol-4-yl)amino)-2-methyl-N-(1-(naphthalen-1-yl)ethyl)benzamide]	1 to 5	
Cc1ccc([N+](=O)[O-])cc1CNC(c1cccc2ccccc12)C1CCOC1 (stereo not drawn) [Compound 123]		IC50 [2]: > 5 µM
C[C@@H](NC(=O)c1ccc2cn[nH]c2c1)c1cccc2ccccc12 [Compound 124, (R)-N-(1-(naphthalen-1-yl)ethyl)-1H-indazole-6-carboxamide]	> 5	
C[C@@H](NC(=O)c1ccc2nc[nH]c2c1)c1cccc2ccccc12 [Compound 125, (R)-N-(1-(Naphthalen-1-yl)ethyl)-1H-benzo[d]imidazole-6-carboxamide]	> 5	
Cc1cc2nc[nH]c2cc1C(=O)N[C@H](C)c1cccc(-c2ccc(CN3CCCC3)s2)c1 [Compound 126, (R)-5-Methyl-N-(1-(3-(5-(pyrrolidin-1-ylmethyl)thiophen-2-yl)phenyl)ethyl)-1H-benzo[d]imidazole-6-carboxamide]	1 to 5	
CC(c1cccc2ccccc12)N1CCc2ccc([N+](=O)[O-])cc2C1 (stereo not drawn) [Compound 127, 2-(1-(Naphthalen-1-yl)ethyl)-7-nitro-1,2,3,4-tetrahydroisoquinoline]		IC50 [2]: > 5 µM
Cc1cc2nc(CN)[nH]c2cc1C(=O)N[C@H](C)c1cccc2ccccc12 [Compound 128, (R)-2-(Aminomethyl)-5-methyl-N-(1-(naphthalen-1-yl)ethyl)-1H-benzo[d]imidazole-6-carboxamide]	0.1 to 1	
Cc1cc2nc(C3CNC3)[nH]c2cc1C(=O)N[C@H](C)c1cccc2ccccc12 [Compound 131, (R)-2-(Azetidin-3-yl)-5-methyl-N-(1-(naphthalen-1-yl)ethyl)-1H-benzo[d]imidazole-6-carboxamide]	1 to 5	
COc1ccc(Cl)c(C(=O)N[C@H](C)c2cccc3ccccc23)c1 [Compound 132, (R)-2-Chloro-5-methoxy-N-(1-(naphthalen-1-yl)ethyl)benzamide]		IC50 [3]: > 5 µM

Structure (SMILES)	IC50 [1] [µM]	further results
Cc1cc2nc[nH]c2cc1C(=O)N[C@H](C)c1cccc(-c2ccc(CN[C@H]3CC[C@@H](O)C3)s2)c1 [Compound 134, N-((R)-1-(3-(5-((((1S,3R)-3-hydroxycyclopentyl)amino)methyl)thiophen-2-yl)phenyl)ethyl)-5-methyl-1H-benzo[d]imidazole-6-carboxamide]	0.1 to 1	
CC(c1cccc2ccccc12)N1CCc2ccc(N)cc2C1 (stereo not drawn) [Compound 135, 2-(1-(Naphthalen-1-yl)ethyl)-1,2,3,4-tetrahydroisoquinolin-7-amine]	1 to 5	
COc1ccc(C)c(C(=O)N[C@H](C)c2cccc3ccccc23)c1 [Compound 136, (R)-5-Methoxy-2-methyl-N-(1-(naphthalen-1-yl)ethyl)benzamide]		IC50 [3]: 1 to 5 µM
Cc1ccc(Nc2cnn(C)c2)cc1C(=O)N[C@H](C)c1cccc(-c2ccc(CN[C@H]3CC[C@@H](O)C3)s2)c1 [Compound 137, N-((R)-1-(3-(5-((((1S,3R)-3-Hydroxycyclopentyl)amino)methyl)thiophen-2-yl)phenyl)ethyl)-2-methyl-5-((1-methyl-1H-pyrazol-4-yl)amino)benzamide]	1 to 5	
Cc1ccc(N)cc1S(=O)(=O)N[C@H](C)c1cccc2ccccc12 [Compound 138, (R)-5-Amino-2-methyl-N-(1-(naphthalen-1-yl)ethyl)benzenesulfonamide]	> 5	
CC(c1cccc2ccccc12)N1CCc2ccc(NC(=O)Cc3ccccc3)cc2C1 (stereo not drawn) [Compound 139, N-(2-(1-(Naphthalen-1-yl)ethyl)-1,2,3,4-tetrahydroisoquinolin-7-yl)-2-phenylacetamide]	> 5	
Cc1ccc(Nc2cn[nH]c2)cc1C(=O)N[C@H](C)c1cccc(-c2ccc(CN[C@H]3CC[C@@H](O)C3)s2)c1 [Compound 140, 5-((1H-Pyrazol-4-yl)amino)-N-((R)-1-(3-(5-((((1S,3R)-3-hydroxycyclopentyl)amino)methyl)thiophen-2-yl)phenyl)ethyl)-2-methylbenzamide]	1 to 5	
Cc1cc2cn[nH]c2cc1C(=O)N[C@H](C)c1cccc2ccccc12 [Compound 142, (R)-5-Methyl-N-(1-(naphthalen-1-yl)ethyl)-1H-indazole-6-carboxamide]	0.1 to 1	
CC(c1cccc2ccccc12)N1CC(CC(=O)NCc2cccc(F)c2)C1 (stereo not drawn) [Compound 143, N-(3-Fluorobenzyl)-2-(1-(1-(naphthalen-1-yl)ethyl)azetidin-3-yl)acetamide]	> 5	
CC(c1cccc2ccccc12)N1CCC(C(=O)NCc2cccc(F)c2)C1 (stereo not drawn) [Compound 144, N-(3-Fluorobenzyl)-1-(1-(naphthalen-1-yl)ethyl)pyrrolidine-3-carboxamide]	> 5	
Cc1cc2c(cc1C(=O)N[C@H](C)c1cccc3ccccc13)OCO2 [Compound 145, (R)-6-Methyl-N-(1-(naphthalen-1-yl)ethyl)benzo[d][1,3]dioxole-5-carboxamide]	1 to 5	
Cc1ccc(N)cc1C(=O)NC1(c2cccc3ccccc23)CC1 [Compound 147, 5-Amino-2-methyl-N-(1-(naphthalen-1-yl)cyclopropyl)benzamide]	0.1 to 1	
Cc1cc2cc(CN)[nH]c2cc1C(=O)N[C@H](C)c1cccc2ccccc12 [Compound 148, (R)-2-(Aminomethyl)-5-methyl-N-(1-(naphthalen-1-yl)ethyl)-1H-indole-6-carboxamide]	0.1 to 1	
C[C@H](c1cccc2ccccc12)N1C[C@@H]2[C@H](C1)[C@H]2C(=O)NCc1cccc(F)c1 [Compound 149]	> 5	
Cc1cc2cccnc2cc1C(=O)N[C@H](C)c1cccc2ccccc12 [Compound 150, (R)-6-Methyl-N-(1-(naphthalen-1-yl)ethyl)quinoline-7-carboxamide]	1 to 5	
Cc1cc2nc(CN)[nH]c2cc1C(=O)N[C@H](C)c1cccc(-c2ccc(CN[C@H]3CC[C@@H](O)C3)s2)c1 [Compound 151, 2-(Aminomethyl)-N-((R)-1-(3-(5-((((1S,3R)-3-hydroxycyclopentyl)amino)methyl)thiophen-2-yl)phenyl)ethyl)-5-methyl-1H-benzo[d]imidazole-6-carboxamide]	0.1 to 1	
Cc1ccc(OC2COC2)cc1C(=O)N[C@H](C)c1cccc2ccccc12 [Compound 152, (R)-2-Methyl-N-(1-(naphthalen-1-yl)ethyl)-5-(oxetan-3-yloxy)benzamide]	1 to 5	
Cc1cc2cc[nH]c2cc1C(=O)N[C@H](C)c1cccc2ccccc12 [Compound 153, (R)-5-Methyl-N-(1-(naphthalen-1-yl)ethyl)-1H-indole-6-carboxamide]	1 to 5	
Cc1cc2cccnc2cc1C(=O)N[C@H](C)c1cccc(-c2ccc(CN[C@H]3CC[C@@H](O)C3)s2)c1 [Compound 154, N-((R)-1-(3-(5-((((1S,3R)-3-Hydroxycyclopentyl)amino)methyl)thiophen-2-yl)phenyl)ethyl)-6-methylquinoline-7-carboxamide]	1 to 5	
CC(=O)c1ccc(C)c(C(=O)N[C@H](C)c2cccc3ccccc23)c1 [Compound 155, (R)-5-Acetyl-2-methyl-N-(1-(naphthalen-1-yl)ethyl)benzamide]		IC50 [3]: > 5 µM
Cc1cc2cc(C3CNC3)[nH]c2cc1C(=O)N[C@H](C)c1cccc2ccccc12 [Compound 156, (R)-2-(Azetidin-3-yl)-5-methyl-N-(1-(naphthalen-1-yl)ethyl)-1H-indole-6-carboxamide]	1 to 5	

Source: patent US20250025443A1, “COMPOUNDS AND METHODS FOR TREATING CORONA VIRUSES” (CLEAR CREEK BIO, INC., priority 2021, published 2025)
